# Measured values as given in PMC7070036, “An amber obligate active site-directed ligand evolution technique for phage display” (Nature Communications, 2020).
# “And” between values parts separate entries of the source, which are not always exact repeats. Equal values may be shown once. Non-standard residues stand in square brackets, D forms with d. Residues, ends and D or L forms follow the SMILES beside them. Lys(thiomyristoyl) = CCCCCCCCCCCCCC(=S)NCCCC[C@H](N)C(=O)O
# T1: SIRT2 (Homo sapiens, UniProt Q8IXJ6)
# T1 sequence (Q8IXJ6 1-389): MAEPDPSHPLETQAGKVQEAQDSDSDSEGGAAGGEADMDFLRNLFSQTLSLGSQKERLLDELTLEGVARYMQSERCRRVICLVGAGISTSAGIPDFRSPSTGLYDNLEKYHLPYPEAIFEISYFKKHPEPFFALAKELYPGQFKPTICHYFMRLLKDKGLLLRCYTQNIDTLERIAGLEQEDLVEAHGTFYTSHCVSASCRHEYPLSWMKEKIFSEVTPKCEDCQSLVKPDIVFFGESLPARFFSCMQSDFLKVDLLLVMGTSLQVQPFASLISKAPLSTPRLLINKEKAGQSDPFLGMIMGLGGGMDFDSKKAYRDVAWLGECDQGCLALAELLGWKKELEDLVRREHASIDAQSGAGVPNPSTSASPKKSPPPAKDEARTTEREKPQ
# T2: SIRT1 (Homo sapiens, UniProt Q96EB6)
# T2 sequence (Q96EB6 1-747): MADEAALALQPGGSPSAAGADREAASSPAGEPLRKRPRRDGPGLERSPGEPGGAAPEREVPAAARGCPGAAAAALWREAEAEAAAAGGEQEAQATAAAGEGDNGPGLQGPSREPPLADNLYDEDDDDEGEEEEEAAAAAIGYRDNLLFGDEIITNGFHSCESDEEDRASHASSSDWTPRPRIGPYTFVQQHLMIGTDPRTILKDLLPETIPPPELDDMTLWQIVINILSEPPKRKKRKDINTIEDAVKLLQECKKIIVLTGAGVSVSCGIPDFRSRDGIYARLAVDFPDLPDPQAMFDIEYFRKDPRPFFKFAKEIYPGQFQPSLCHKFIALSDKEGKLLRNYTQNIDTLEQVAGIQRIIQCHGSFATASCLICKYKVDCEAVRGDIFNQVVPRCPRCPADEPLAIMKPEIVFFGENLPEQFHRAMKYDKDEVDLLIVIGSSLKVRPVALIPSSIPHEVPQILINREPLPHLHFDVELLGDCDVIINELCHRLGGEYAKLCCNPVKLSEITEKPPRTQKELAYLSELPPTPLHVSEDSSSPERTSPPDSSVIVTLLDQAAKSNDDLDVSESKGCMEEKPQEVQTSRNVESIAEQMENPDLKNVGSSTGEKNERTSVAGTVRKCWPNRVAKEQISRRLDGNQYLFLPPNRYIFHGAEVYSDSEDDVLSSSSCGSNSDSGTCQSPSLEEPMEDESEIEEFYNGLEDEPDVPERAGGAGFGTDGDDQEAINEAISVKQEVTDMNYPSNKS
# B1: recombinant human SIRT2 (enzyme)
# chain: MAEPDPSHPLETQAGKVQEAQDSDSDSEGGAAGGEADMDFLRNLFSQTLSLGSQKERLLDELTLEGVARYMQSERCRRVICLVGAGISTSAGIPDFRSPSTGLYDNLEKYHLPYPEAIFEISYFKKHPEPFFALAKELYPGQFKPTICHYFMRLLKDKGLLLRCYTQNIDTLERIAGLEQEDLVEAHGTFYTSHCVSASCRHEYPLSWMKEKIFSEVTPKCEDCQSLVKPDIVFFGESLPARFFSCMQSDFLKVDLLLVMGTSLQVQPFASLISKAPLSTPRLLINKEKAGQSDPFLGMIMGLGGGMDFDSKKAYRDVAWLGECDQGCLALAELLGWKKELEDLVRREHASIDAQSGAGVPNPSTSASPKKSPPPAKDEARTTEREKPQ
# Legend:
# SIRT2 [1] = target: T1, SIRT2; assay: SIRT2 inhibition assay for thiomyristoyl peptides; assay type: biochemical
# Experimental: Assays were performed in 40-µL volumes at 37 °C in black, 384-well plates. […] Following incubation, the reaction started with the addition of the fluorogenic substrate (5 µM), and product formation was monitored by measuring the fluorescence intensity every 20 s for 5 min (SIRT2) in a BioTek Synergy H1 microplate reader at λex = 320 nm and λem = 408 nm (gain = 130 and read height = 7 mm). Initial rates were determined using the plot of fluorescence vs. time for linear portions of each curve. IC50 values were then determined using GraphPad Prism to fit a nonlinear regression to the normalized rates vs. inhibitor concentration.
# SIRT2 [2] = target: T1, SIRT2; assay: SIRT2 inhibition assay, no preincubation; assay type: biochemical
# Experimental: The inhibition assay was performed using a universal continuous sirtuin substrate. Assays were performed in 40-µL volumes at 37 °C in black, 384-well plates. Five micrometers of substrate was incubated with different concentrations of peptide or TM (0.5–1000 nM in DMF, 20% DMF final concentration) for 2 min in assay buffer (20 mM Tris, pH 7.8, 150 mM NaCl, 5 mM MgCl2, 1 mM DTT, and 1 mM NAD^+). Following incubation, the reaction started with the addition of SIRT2 (10 nM), and product formation was monitored by measuring the fluorescence intensity every 20 s for 10 min (SIRT2) in a BioTek Synergy H1 microplate reader at λex = 320 nm and λem = 408 nm (gain = 130 and read height = 7 mm). Initial rates were determined using the plot of fluorescence vs. time for linear portions of each curve. The IC50 value was determined using GraphPad Prism to fit a nonlinear regression to the normalized rates vs. inhibitor concentration (Supplementary Fig. 30).
# SIRT1 = target: T2, SIRT1; assay: Continuous fluorogenic sirtuin inhibition assay, SIRT1; assay type: biochemical; conditions: mean ± SD of two independent experiments
# Experimental: The continuous assay for comparing isoform specificity of S2P04 was performed using the universal fluorogenic sirtuin substrate described by Schuster et al.[41]. Briefly, the inhibition reactions were performed in 50-µL volumes at 37 °C in black, half-area, 96-well plates. The sirtuin enzyme (0.25 µM) was preincubated with different concentrations of the peptide S2P04 (0.0064–50 µM for SIRT1 and SIRT2, 0.5–100 µM for SIRT3) or TB (0.16–150 µM for SIRT1–SIRT3), and 1 mM NAD^+ in assay buffer (20 mM Tris, pH 7.8, 150 mM NaCl, 5 mM MgCl2, and 1 mM DTT) for 15 min. Following incubation, the reaction started with the addition of the fluorogenic substrate (5 µM), and product formation was monitored by measuring the fluorescence intensity every 20 s for 5 min (SIRT2) or 30 min (SIRT1 and SIRT3) in a BioTek Synergy H1 microplate reader at λex = 320 nm and λem = 408 nm (gain = 130 and read height = 7 mm). Initial rates of product formation were determined by a linear regression of the plot of fluorescence intensity vs. time and normalized relative to 0% (max inhibitor) and 100% (no inhibitor) controls. The assay was repeated to determine the IC50 values of all BuK peptides for SIRT2. IC50 values were determined by nonlinear regression of the plot of the normalized initial rate vs. inhibitor concentration using GraphPad Prism. The determined IC50 values are provided in Supplementary Table 2, and inhibition curves can be seen in Supplementary Fig. 20.
# [3] = test system: amber-obligate phagemid library; assay: Phage yield on expression of the amber-obligate phagemid library with ncAAs (cfu assay); parameters: species or system E. coli Top10; conditions: BuKRS
# FITC-conjugated S2P03 = assay: fluorescence polarisation; SIRT2 serially diluted from 5 uM to 1 nM (24 uL) plus 1 uL of 250 nM FITC-peptide; 50 mM Tris, 137 mM NaCl, 2.7 mM KCl, 1 mM MgCl2, 1 mM DTT, 0.01% Triton X-100, pH 8.0; 37 C for 15-30 min; 384-well plate
molecule,measurement,setting,value
CCCCCCCCCCCCCC(=S)NCCCC[C@H](NC(=O)[C@@H](NC(=O)[C@@H](NC(=O)[C@@H](N)CS)[C@@H](C)O)C(C)C)C(=O)N[C@H](C(=O)N[C@@H](CO)C(=O)N[C@@H](CC(C)C)C(N)=O)[C@@H](C)O [S2P03-tMyK] (H-CTV[Lys(thiomyristoyl)]TSL-NH2),IC50,"SIRT2 [1]; 10 nM SIRT2, 15 min preincubation, 5 µM substrate, n = 2",10 ± 3 nM
same,activity at 0.000465917 µM,SIRT2 [1]; inhibitor 0.465917 nM,102%
same,"%Activity, SIRT2","SIRT2 [1]; inhibitor 0.465917 nM, 0.000465917 µM",98.0615%
same,"%Activity, SIRT2","SIRT2 [1]; inhibitor 0.931834 nM, 0.000931834 µM",113.937% and 81.1704%
same,activity at 0.00186367 µM,SIRT2 [1]; inhibitor 1.86367 nM,99.7%
same,"%Activity, SIRT2","SIRT2 [1]; inhibitor 1.86367 nM, 0.00186367 µM",95.1685%
same,activity at 0.00372734 µM,SIRT2 [1]; inhibitor 3.72734 nM,96.6%
same,"%Activity, SIRT2","SIRT2 [1]; inhibitor 3.72734 nM, 0.00372734 µM",82.1027%
same,"%Activity, SIRT2","SIRT2 [1]; inhibitor 7.45468 nM, 0.00745468 µM",52.8299% and 73.9018%
same,activity at 0.0149094 µM,SIRT2 [1]; inhibitor 14.9094 nM,40.8%
same,"%Activity, SIRT2","SIRT2 [1]; inhibitor 14.9094 nM, 0.0149094 µM",45.2416%
same,"%Activity, SIRT2","SIRT2 [1]; inhibitor 477.099 nM, 0.477099 µM",3.151% and -3.151%
same,"%Activity, SIRT2","SIRT2 [1]; inhibitor 954.198 nM, (Activity/Activity w/o inhibitor)*100, single trials, 0.954198 µM",11.9872% and 2.232%
same,change in IC50 without preincubation of enzyme,SIRT2 [2],insignificant change in IC50
same,IC50,SIRT1,400 ± 100 nM
"C/C=C/C(=O)NCCCC[C@H](N)C(=O)O [compound 6, N^Ɛ-crotonyl-L-lysine]",fold increase in particle yield vs no ncAA,[3],~100 fold
same,"Phage Yields, ncAA","[3]; Fig. 4e, single trials",3.00E+09 CFU/mL
B1,Kd,FITC-conjugated S2P03,49 nM
